Experiment: healthy volunteer study of flushing on DMF dosing with aspirin pre-treatment
Assay type: in vivo, human
Conditions: 325 mg non-enteric coated aspirin 30 minutes prior to DMF dosing; healthy volunteers
Procedure: Subjects receiving a vaccine who experience flushing may be administered (e.g., 30 min. prior to DMF dosing) about 325 mg of aspirin to reduce flushing. Some patients who experience flushing with gastrointestinal side effects may reduce the dose to 120 mg DMF BID temporarily. Within a month, the effective dose of 240 mg DMF BID should be resumed.

CC(=O)Oc1ccccc1C(=O)O [aspirin]
occurrence and severity of flushing: reduce the occurrence and severity of flushing
